Measured values taken from PMC12750995, “Conformational Dynamics in the Cell Membrane Interactions of Bispecific Targeted Degrader Therapeutics” (Journal of Medicinal Chemistry, 2025).

Experiments:
[1] = in vitro; conditions: human, pH 7.4, n = 3
Experimental: Binding to the cell homogenate was determined at 0.1 μM for all compounds. A Rapid Equilibrium Dialysis device (Thermo Fisher, Waltham, Massachusetts) was used to dialyze the samples by adding 200 μL of the compound-spiked cell homogenate to one chamber and 350 μL of HBSS/HEPES to the other chamber. The cassette was incubated on an Eppendorf ThermoMixer C (Hamburg, Germany) at 900 rpm for 4 h at 37 °C.

[2] = Equilibrium dialysis binding to HEK293 cell homogenate (fraction unbound); assay type: in vitro ADME; conditions: human, pH 7.4; fraction unbound in HEK293 cell homogenate, 10 × 10^6 cells/mL, 0.1 μM, 4 h, 37 °C; read-out: fu,hom
Experimental: (§1) The unbound fraction of a selected series of PROTACs was determined through equilibrium dialysis against the cell homogenate. HEK293 cells (ATCC, Manassas, VA) were grown in Dulbecco’s modified Eagle’s medium (DMEM) supplemented with 10% fetal bovine serum (FBS) at 37 °C, 95% relative humidity, and 5% CO2. Cell pellets were harvested using 0.05% trypsin and centrifuged at 260g for 5 min. The cells were resuspended in Dulbecco’s phosphate buffer (DPBS), counted using a Luna II cell counter (Logos Biosystems, Anyang, South Korea) and centrifuged at 260g. The supernatant was discarded, and cell pellets were stored at −80 °C prior to cell homogenate preparation. On the day of the experiment, cell pellets were thawed and resuspended in Hank’s balanced salt solution (HBSS) buffered with 20 mM HEPES (pH 7.4) to a concentration of 10 × 10^6 cells/mL. The cell suspension was homogenized using ultrasonication for 10 s at 20% intensity while kept on ice.
(§2) Compound stability was assessed by adding the compound-spiked cell homogenate to an empty well in the dialysis cassette. At the end of the experiment, these concentrations were compared to identical control samples stored at 4 °C. Mass balance was calculated at the end of each experiment. Further, in all wells, two control compounds (atorvastatin and lopinavir) were included to ensure that the assay plate was functional. All compounds were tested in triplicate in one experiment. Compound 2 was only detected on the cell homogenate side, and thus, the concentration on the buffer side was set to half of the lower limit of quantification to allow calculation of an approximate cell homogenate binding.
(§3) Final samples were matrix matched by taking 1 part sample and 1 part blank cell homogenate or buffer. Proteins were precipitated using 1 part matrix matched sample and 3 parts acetonitrile supplemented with 0.3% formic acid (FA) and 5 nM verapamil (internal standard), and this was diluted 1:1 with Milli-Q prior to centrifugation at 2500g for 20 min. Compound concentrations in the supernatant were quantified using a reversed phase system with a Waters Acquity UPLC HSS T3 column (50 × 2.1 mm, 1.8 μm) in an Aquity UPLC connected to a Xevo TQ-XS mass spectrometer (Waters Corp., Milford, MA). The chromatographic run was done using solvent A (0.1% FA in Milli-Q) and solvent B (0.1% FA in acetonitrile Optima LC/MS grade (Fisher Scientific)) with isocratic conditions between 0 and 0.3 min (99.8% solvent A and 0.2% solvent B), a linear gradient between 0.3 and 1.3 min (from 0.2% to 95% solvent B), isocratic conditions between 1.3 and 1.8 min (95% solvent B), and equilibration back to start conditions between 1.8 and 2.3 min. Mass transitions, cone voltages, and collision energies can be found in Table S4.

[3] = test system: HEK293 cell homogenate; assay: as above; assay type: in vitro ADME; conditions: for fu,hom mass balance: equilibrium dialysis, 0.1 μM; for cell homogenate binding (bound-to-unbound concentration ratio) compared with matched compound: Figure 6G, 11 vs 9, 8 vs 14, 9 vs 16; for fold higher bound-to-unbound concentration ratio than compound 9: comparator compound 9
Experimental: as §1, §2, §3

[4] = Caco-2 A-B passive permeability with preincubation, transporter-inhibited; assay type: in vitro ADME; conditions: human, Caco-2, with 50 μM quinidine, 30 μM benzbromarone, 20 μM sulfasalazine; Figure 3A grouping; read-out: Passive Caco-2 cell permeability group (high, moderate or low)
Experimental: (§4) Transepithelial transport of the compounds through a Caco-2 monolayer (ATCC, HTB-37) was determined in 14–18 days old monolayers in Costar 24-well cell culture cluster plates (polycarbonate membrane, 0.4 μm pore size). Chamber volumes were 200 and 800 μL on the apical and basolateral sides of the cell monolayers, respectively, and all incubations were performed with prewarmed buffers in an orbital shaking incubator at 480 rpm and 37 °C. Prior to the assay, cells were washed with HBSS supplemented with 25 mM HEPES (HBSS-HEPES), pH 7.4, to remove the culture medium. After 15 min of equilibration, the transepithelial electrical resistance (TEER) was determined to assess acceptance of the cell plates into the assay. A second measurement and a lucifer yellow leakage determination was carried out after performing all the transport experiments to monitor integrity of the cell monolayers throughout the study.
(§5) Before the permeability study, to minimize nonspecific binding of PROTACs to the cells and plates, the cells were preincubated with 10 μM compound solution on the apical (donor) side for 1 h, analogous to Muschong et al. Then, cells were washed twice with HBSS-MES pH 6.5 containing 1% BSA. Then, permeability in the absorptive direction (A–B, apical-to-basolateral) was studied over 120 min at a 10 μM test compound concentration. The compound solutions were freshly prepared from DMSO stock solutions diluted into HBSS supplemented with 25 mM MES, pH 6.5, containing efflux inhibitors (50 μM quinidine, 30 μM benzbromarone, and 20 μM sulfasalazine); the final solvent concentration was always 0.5%.
(§6) Samples from the donor side (10 μL) were drawn immediately after the addition of the test compound and after 45 and 120 min. The donor samples were diluted 1:10 in HBSS. From the receiver compartment, an amount of 100 μL was withdrawn after 45 and 120 min and replaced with fresh HBSS-HEPES, pH 7.4.
(§7) Upon completion of the study, all samples were quenched with 300 μL of acetonitrile and analyzed subsequently using UPLC/MS/MS. The permeability was determined as the appearance rate of the compound on the receiver side, in relation to donor concentration, according to eq 4 Papp=dQ/[(dt)(T)]×A/D where dQ/[(dt)(T)] is the slope of the permeation profile across the Caco-2 cell monolayers, A is the surface area of the Transwell insert (0.33 cm^2), and D is the concentration on the donor side. Following the permeability experiments, recovery from the donor and receiver compartments was calculated using eq 5 recovery(%)(0−120min)=CR120×VR+CR45×0.1+CD45×0.01+CD120×VD/D0×VD×100

[5] = test system: Caco-2 monolayer; assay: as above; assay type: in vitro ADME; conditions: recovery from donor and receiver compartments, 0-120 min
Experimental: as §4, §5, §6, §7

| SMILES | fraction unbound at 4 h, 0.1 μM ([1]; HEK293 cell homogenate) | Papp A→B at 120 min, 10 μM [4] [×10⁻⁶ cm/s] | also measured |
| --- | --- | --- | --- |
| Cc1sc2c(c1C)C(c1ccc(Cl)cc1)=N[C@@H](CC(=O)NC[C@@H]1CCC[C@H](CNc3cccc4c3C(=O)N(C3CCC(=O)NC3=O)C4=O)C1)c1nnc(C)n1-2 (mixture of isomers) [Compound 12, 2-((6S)-4-(4-Chlorophenyl)-2,3,9-trimethyl-6H-thieno[3,2-f][1,2,4]triazolo[4,3-a][1,4]diazepin-6-yl)-N-(((1RS,3SR)-3-(((2-(2,6-dioxopiperidin-3-yl)-1,3-dioxoisoindolin-4-yl)amino)methyl)cyclohexyl)methyl)acetamide] | 0.007 | – | – |
| COc1cc2c(Oc3ccc(NC(=O)C4(C(=O)Nc5ccc(F)cc5)CC4)cc3F)ccnc2cc1OCCCCOCCCCOCC(=O)NC(C(=O)N1CC(O)CC1C(=O)NCc1ccc(-c2scnc2C)cc1)C(C)(C)C (stereo not shown) [Compound 1] | – | < 0.5 | fraction unbound at 4 h, 0.1 μM [2]: 0.011; fu,hom mass balance ([3]; HEK293 cell homogenate): 118%; Papp Recovery (%) (0-120 min) [5]: 39% |
| Cc1ncsc1-c1ccc(CNC(=O)[C@@H]2C[C@@H](O)CN2C(=O)[C@@H](NC(=O)COCCCCOc2ccc(-c3ccc(N4C(=S)N(c5ccc(C#N)c(C(F)(F)F)c5)C(=O)C4(C)C)cc3)cc2)C(C)(C)C)cc1 [Compound 2] | – | < 0.5 | fraction unbound at 4 h, 0.1 μM [2]: 0.016; fu,hom mass balance ([3]; HEK293 cell homogenate): 109%; Papp Recovery (%) (0-120 min) [5]: 87% |
| Cc1ncsc1-c1ccc(CNC(=O)[C@H]2C[C@H](O)CN2C(=O)[C@@H](NC(=O)COCCOCCOCCNC(=O)C[C@@H]2N=C(c3ccc(Cl)cc3)c3c(sc(C)c3C)-n3c(C)nnc32)C(C)(C)C)cc1 [Compound 6] | 0.242 | 0.5 to 10 | – |
| COc1cc(-c2cn(C)c(=O)c3cnccc23)cc(OC)c1CN(C)CC(=O)NCCCCCCCCNc1cccc2c1C(=O)N(C1CCC(=O)NC1=O)C2=O (stereo not shown) [Compound 7] | 0.19 | > 10 | – |
| Cc1sc2c(c1C)C(c1ccc(Cl)cc1)=N[C@@H](CC(=O)NCCCCCCCCNC(=O)COc1cccc3c1C(=O)N(C1CCC(=O)NC1=O)C3=O)c1nnc(C)n1-2 (stereo partly shown) [Compound 8] | 0.133 | > 10 | cell homogenate binding (bound-to-unbound concentration ratio) compared with matched compound [3]: higher experimental binding than 14; fold higher bound-to-unbound concentration ratio than compound 9 ([3]; HEK293 cell homogenate): 4.6 fold |
| Cc1sc2c(c1C)C(c1ccc(Cl)cc1)=N[C@@H](CC(=O)NCCCCNC(=O)COc1cccc3c1C(=O)N(C1CCC(=O)NC1=O)C3=O)c1nnc(C)n1-2 (stereo partly shown) [Compound 9] | 0.411 | < 0.5 | cell homogenate binding (bound-to-unbound concentration ratio) compared with matched compound [3]: higher cell homogenate binding than 16 |
| COc1cc(-c2cn(C)c(=O)c3cnccc23)cc(OC)c1CN(C)CC(=O)NCCOCCOCCNc1cccc2c1C(=O)N(C1CCC(=O)NC1=O)C2=O (stereo not shown) [Compound 10] | – | < 0.5 | fold lower bound-to-unbound concentration ratio (membrane binding) than compound 7 ([3]; HEK293 cell homogenate, comparator compound 7): 5.3 fold; fraction unbound at 4 h, 0.1 μM ([1]; tissue homogenate): 0.557 |
| Cc1ncsc1-c1ccc(CNC(=O)[C@@H]2C[C@@H](O)CN2C(=O)[C@@H](NC(=O)CCCCNC(=O)C[C@@H]2N=C(c3ccc(Cl)cc3)c3c(sc(C)c3C)-n3c(C)nnc32)C(C)(C)C)cc1 [Compound 11, (2S,4R)-1-((2S)-2-(5-(2-((6S)-4-(4-Chlorophenyl)-2,3,9-trimethyl-6H-thieno[3,2-f][1,2,4]triazolo[4,3-a][1,4]diazepin-6-yl)acetamido)pentanamido)-3,3-dimethylbutanoyl)-4-hydroxy-N-(4-(4-methylthiazol-5-yl)benzyl)pyrrolidine-2-carboxamide] | 0.139 | – | cell homogenate binding (bound-to-unbound concentration ratio) compared with matched compound [3]: higher cell homogenate binding than the CRBN-binding 9; fold higher bound-to-unbound concentration ratio than compound 9 ([3]; HEK293 cell homogenate): 3 fold |
| Cc1sc2c(c1C)C(c1ccc(Cl)cc1)=N[C@@H](CC(=O)NCCCNc1cccc3c1C(=O)N(C1CCC(=O)NC1=O)C3=O)c1nnc(C)n1-2 (stereo partly drawn) [Compound 13, 2-((6S)-4-(4-Chlorophenyl)-2,3,9-trimethyl-6H-thieno[3,2-f][1,2,4]triazolo[4,3-a][1,4]diazepin-6-yl)-N-(3-((2-(2,6-dioxopiperidin-3-yl)-1,3-dioxoisoindolin-4-yl)amino)propyl)acetamide] | – | – | fraction unbound at 4 h, 0.1 μM ([1]; tissue homogenate): 0.228 |
| Cc1sc2c(c1C)C(c1ccc(Cl)cc1)=N[C@@H](CC(=O)NCCOCCOCCNC(=O)COc1cccc3c1C(=O)N(C1CCC(=O)NC1=O)C3=O)c1nnc(C)n1-2 (stereo partly drawn) [Compound 14, 2-((6S)-4-(4-Chlorophenyl)-2,3,9-trimethyl-6H-thieno[3,2-f][1,2,4]triazolo[4,3-a][1,4]diazepin-6-yl)-N-(2-(2-(2-(2-((2-(2,6-dioxopiperidin-3-yl)-1,3-dioxoisoindolin-4-yl)oxy)acetamido)ethoxy)ethoxy)ethyl)acetamide] | 0.432 | – | – |
| Cc1sc2c(c1C)C(c1ccc(Cl)cc1)=N[C@@H](CC(=O)N1CCN(c3cccc4c3C(=O)N(C3CCC(=O)NC3=O)C4=O)CC1)c1nnc(C)n1-2 (stereo partly drawn) [Compound 15, 4-(4-(2-((6S)-4-(4-Chlorophenyl)-2,3,9-trimethyl-6H-thieno[3,2-f][1,2,4]triazolo[4,3-a][1,4]diazepin-6-yl)acetyl)piperazin-1-yl)-2-(2,6-dioxopiperidin-3-yl)isoindoline-1,3-dione] | 0.182 | – | – |
| Cc1sc2c(c1C)C(c1ccc(Cl)cc1)=N[C@@H](CC(=O)NCCOCCNC(=O)COc1cccc3c1C(=O)N(C1CCC(=O)NC1=O)C3=O)c1nnc(C)n1-2 (stereo partly drawn) [Compound 16, 2-((6S)-4-(4-Chlorophenyl)-2,3,9-trimethyl-6H-thieno[3,2-f][1,2,4]triazolo[4,3-a][1,4]diazepin-6-yl)-N-(2-(2-(2-((2-(2,6-dioxopiperidin-3-yl)-1,3-dioxoisoindolin-4-yl)oxy)acetamido)ethoxy)ethyl)acetamide] | 0.5 | – | – |
| Cc1sc2c(c1C)C(c1ccc(Cl)cc1)=N[C@@H](CC(=O)N1CCC(Oc3cccc4c3C(=O)N(C3CCC(=O)NC3=O)C4=O)C1)c1nnc(C)n1-2 (stereo partly drawn) [Compound 17, 4-((1-(2-((6S)-4-(4-Chlorophenyl)-2,3,9-trimethyl-6H-thieno[3,2-f][1,2,4]triazolo[4,3-a][1,4]diazepin-6-yl)acetyl)pyrrolidin-3-yl)oxy)-2-(2,6-dioxopiperidin-3-yl)isoindoline-1,3-dione] | 0.357 | – | – |
